From PMC12057336 (Antimicrobial Agents and Chemotherapy, 2025)

Target: T1, human OAT3 (Homo sapiens, UniProt Q8TCC7)
T1 sequence (Q8TCC7 1-542): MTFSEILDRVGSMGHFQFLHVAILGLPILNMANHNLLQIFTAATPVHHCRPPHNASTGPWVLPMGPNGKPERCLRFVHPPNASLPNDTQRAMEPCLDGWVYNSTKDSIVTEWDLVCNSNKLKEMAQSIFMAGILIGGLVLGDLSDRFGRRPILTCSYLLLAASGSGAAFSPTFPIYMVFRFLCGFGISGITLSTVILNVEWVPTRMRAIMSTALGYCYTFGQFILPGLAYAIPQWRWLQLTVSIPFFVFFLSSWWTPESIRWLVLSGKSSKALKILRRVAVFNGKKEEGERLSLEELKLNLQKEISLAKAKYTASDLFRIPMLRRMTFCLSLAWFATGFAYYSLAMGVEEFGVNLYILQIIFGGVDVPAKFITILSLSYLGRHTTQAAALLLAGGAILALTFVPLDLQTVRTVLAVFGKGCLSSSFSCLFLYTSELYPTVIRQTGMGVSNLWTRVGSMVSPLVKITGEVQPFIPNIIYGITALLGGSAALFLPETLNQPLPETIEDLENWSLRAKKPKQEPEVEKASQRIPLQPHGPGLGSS
Experiment: Uptake in OAT3-transfected HEK293 cells
Details: 5 µM; 10 min; 37°C; vs mock cells
Method: OATP1B1-, OATP1B3-, OATP2B1-, NTCP-, OAT1-, and OAT3-transfected HEK293 cells were cultured in DMEM supplemented with 10% FBS, 100 U/mL penicillin-streptomycin at 37°C with 95% relative humidity atmosphere containing 5% CO2. All cells were seeded in 24-well plates at a density of 4 × 10^5 cells/well and cultured for 1–2 days until they reached 80%–90% confluence. Prior to the initiation of uptake studies, the cells were washed twice with HBSS buffer at 37°C. Membrane vesicles were stored at −80°C and thawed at 37°C prior to the initiation of the studies.
All uptake tests were performed in triplicates. The activities of transporter-transfected HEK293 cells were evaluated using relevant positive substrates and inhibitors. E17G (5 µM, OATP1B1 and OATP1B3), ES (2 µM, OATP2B1), ES (5 µM, OAT3), TCA (10 µM, NTCP), and PAH (20 µM, OAT1) were used as substrates of the transporters. The inhibitors for each transporter were rifampicin (200 µM, OATP1B1 and OATP1B3), erlotinib (10 µM, OATP2B1), CsA (20 µM, NTCP), and probenecid (200 µM, OAT1 and OAT3).
The cells were washed three times with ice-cold HBSS buffer. […] The total protein concentration was measured using a BCA Protein Assay Kit. The uptake rates of HEK293-OATP1B1, HEK293-OATP1B3, HEK293-OATP2B1, HEK293-NTCP, HEK293-OAT1, HEK293-OAT3, and mock cells were calculated. […]

Structure (SMILES): CC(=O)NC[C@H]1CN(c2ccc(N3CCOCC3)c(F)c2)C(=O)O1 [Linezolid]
- substrate for OAT3: not a substrate
